In series [1] the test system is Plasmopara viticola. Put plainly: Plasmopara test (grapevine) / protective. Type of series: in vivo. Conditions: young grapevine plants, protective spray, 10 ppm active ingredient, evaluation 6 days after inoculation; 0% = control, 100% = no infection. How it is done: Plasmopara Test (Grapevine)/Protective
• Solvent: 24.5 parts by weight of acetone • 24.5 parts by weight of dimethylacetamide • Emulsifier: 1 part by weight of alkylaryl polyglycol ether
To produce a suitable active ingredient formulation, 1 part by weight of active ingredient is mixed with the stated amounts of solvent and emulsifier, and the concentrate is diluted with water to the desired concentration.
To test for protective efficacy, young plants are sprayed with the active ingredient formulation at the stated application rate. After the spray coating has dried on, the plants are inoculated with an aqueous spore suspension of Plasmopara viticola and then remain in an incubation cabin at approx. 20° C. and 100% relative air humidity for 1 day. Subsequently, the plants are placed in a greenhouse at approx. 21° C. and approx. 90% air humidity for 4 days. The plants are then moistened and placed in an incubation cabin for 1 day.
Evaluation follows 6 days after the inoculation. 0% means an efficacy which corresponds to that of the control, whereas an efficacy of 100% means that no infection is observed.
In this test, the following inventive compounds show, at an active ingredient concentration of 10 ppm, an efficacy of 70% or more: […]

Series [2] relates to Phytophthora infestans. The class given is in vivo. Particulars: young tomato plants, protective spray, 100 ppm active ingredient, evaluation 7 days after inoculation; 0% = control, 100% = no infection.
Series [3] can be described thus: logP by HPLC on reversed-phase columns (C 18), EEC directive 79/831 Annex V.A8. Type of series: physicochemical. Conditions: LC-MS; for Log P [b]: neutral range, pH 7.8, 0.001 molar aqueous ammonium hydrogencarbonate and acetonitrile. As to the method: The logP values were measured according to EEC directive 79/831 Annex V.A8 by HPLC (High Performance Liquid Chromatography) on reversed-phase columns (C 18), using the methods below:
^[a] The LC-MS determination in the acidic range is effected at pH 2.7 with 0.1% aqueous formic acid and acetonitrile (contains 0.1% formic acid) as eluents; linear gradient from 10% acetonitrile to 95% acetonitrile.
^[b] The LC-MS determination in the neutral range is effected at pH 7.8 using 0.001 molar aqueous ammonium hydrogencarbonate solution and acetonitrile as eluents; linear gradient from 10% acetonitrile to 95% acetonitrile.
The calibration is effected with unbranched alkan-2-ones (having 3 to 16 carbon atoms) with known logP values (logP values determined on the basis of the retention times by linear interpolation between two successive alkanones).

The mark [4] stands for this setting: acidic range, pH 2.7, 0.1% aqueous formic acid and acetonitrile.

Take `Cc1cc(C(F)(F)F)nn1CC(=O)N1CCC(c2nc(C3=NOC(c4cccc(C=O)c4)C3)cs2)CC1` (stereo not shown) [Ex. 1]: the Eff. % in series [1] is on record as 98%; in series [2] it was 100%. The “Log P [a]” value in series [3] (setting [4]) was 2.83[a].
For `C#CCOc1ccccc1C1CC(c2csc(C3CCN(C(=O)Cn4nc(C)cc4C(F)F)CC3)n2)=NO1` (stereo not shown) [Ex. 29], in that order: 100%, 100% and 3.03[a].
Take `C=CCOc1ccccc1C1CC(c2csc(C3CCN(C(=O)Cn4nc(C(F)(F)F)cc4C)CC3)n2)=NO1` (stereo not shown) [Ex. 30]: the values for the Eff. % in series [1] and in series [2] were 100% and 97%, respectively. The “Log P [a]” value in series [3] (setting [4]) is 3.86[a];. In series [3], the “Log P [b]” value was 3.73[b].
For `C#CCOc1cccc(Cl)c1C1CC(c2csc(C3CCN(C(=O)Cn4nc(C(F)(F)F)cc4C)CC3)n2)=NO1` (stereo not shown) [Ex. 11], in that order: 100%, 85%, 3.62[a]; and 3.53[b].
On to `Cc1ccc(Cl)cc1NC(=O)N1CCC(c2nc(C3=NOC(c4cccc(C=O)c4)C3)cs2)CC1` (stereo not shown) [Ex. 2], for which the Eff. % in series [1] and in series [2] was 100% throughout. Moreover, in series [3] (setting [4]), the “Log P [a]” value was 3.05[a].
Regarding `Cc1cc(C(F)(F)F)nn1CC(=O)N1CCC(c2nc(C3=NOC(c4ccc(OC(=O)C5CC5)cc4)C3)cs2)CC1` (racemic) [Ex. 47], the results for the Eff. % in series [1] and in series [2] were 86% and 100%, respectively. In series [3] (setting [4]), the “Log P [a]” value is 3.49[a];. In addition, the “Log P [b]” value in series [3] is 3.4[b].
Turning to `CS(=O)(=O)Nc1ccccc1C1CC(c2csc(C3CCN(C(=O)Cc4cc(C(F)F)ccc4C(F)F)CC3)n2)=NO1` (stereo not shown) [Ex. 4, N-(2-{3-[2-(1-{[2,5-Bis(difluoromethyl)phenyl]acetyl}piperidin-4-yl)-1,3-thiazol-4-yl]-4,5-dihydro-1,2-oxazol-5-yl}phenyl)methanesulphonamide], the Eff. % in series [1] and in series [2] was 95% each time. The chromatographic logP in series [3] (reversed-phase HPLC column (C18), acidic range, pH 2.7, 0.1% aqueous formic acid and acetonitrile, read-out: Log P [a]) came out at 2.81.
Take `Cc1cc(C(F)(F)F)nn1CC(=O)N1CCC(c2nc(C3=NOC(c4c(F)cccc4C=O)C3)cs2)CC1` (racemic) [Ex. 53]: the Eff. % in series [1] was found to be 100%; in series [2], 98%. For the same compound, the “Log P [a]” value in series [3] (setting [4]) was 3.03[a];. In addition, the “Log P [b]” value in series [3] is 2.95[b].
For `Cc1cc(C(F)(F)F)nn1CC(=O)N1CCC(c2nc(C3=NOC(c4cccc(F)c4OC(=O)C4CC4)C3)cs2)CC1` (racemic) [Ex. 54], in that order: 91%, 94%, 3.62[a]; and 3.5[b].
For `Cc1cc(C(F)(F)F)nn1CC(=O)N1CCC(c2nc(C3=NOC(c4cccc(OC(=O)C5CC5)c4)C3)cs2)CC1` (racemic) [Ex. 40], in that order: 85%, 100%, 3.53[a]; and 3.47[b].
Turning to `C#CCOc1cccc(F)c1C1CC(c2csc(C3CCN(C(=O)Cn4nc(C(F)(F)F)cc4C)CC3)n2)=NO1` (stereo not shown) [Ex. 12], the Eff. % in series [1] is 100%; in series [2], 75%. For the same compound, in series [3] (setting [4]), the “Log P [a]” value was 3.35[a];. Besides, in series [3], the “Log P [b]” value is 3.27[b].

The values above are taken from patent US9512117B2 (priority 2010, dated 2016).
